The results in this text go back to publication PMC11898738 (mBio, 2025).

Usually IC50 stands for the concentration at which inhibition is half-maximal. Read a high IC50 as lower potency. Broadly, the Kd is the concentration at which binding is half-saturated.

The target in experiment [1] is T1, BbPMI (Borreliella burgdorferi, UniProt O51368).
T1 construct: gene manA
Nature of the experiment: coupled PGI/G6PDH assay, NADPH at […] nm. Type of experiment: biochemical.

The target of experiment [2] is type IV collagen (UniProt P02462 173-1669; P08572 184-1712). Nature of the experiment: MST; BbPMI labeled with RED-NHS dye at constant 5 nM; serial dilutions of collagen IV or controls; PBS + 0.05% Tween-20; 15 minutes at RT; standard capillaries, 10% excitation, 40% MST power; T-Jump analysis. Particulars: both partners purified.

Take `O=c1c2ccc(F)cc2sn1-c1ccccc1` [NCGC00871019-01]: the IC50 in experiment [1] is roughly 500 nM.

Molecule `Cc1ccc(C)c(-n2sc3cc(F)ccc3c2=O)c1` [MLS0315771, 2-(2,5-dimethylphenyl)-6-fluorobenzo[d]isothiazol-3(2H)-one] came in with an IC50 in experiment [1] of 600 to 900 nM.

Molecule `Cc1ccc(C)c(-n2sc3ccc(F)cc3c2=O)c1` [NCGC00871020-01] had an IC50 in experiment [1] of roughly 500 nM.

Turning to `COc1ccc(-n2sc3ccc(F)cc3c2=O)cc1` [NCGC00871021-01], the half-maximal inhibitory concentration (IC50) in experiment [1] is roughly 500 nM.

B1: recombinant BbPMI labeled with RED-NHS dye (BbPMI-NT647) (enzyme)
chain: MNNEDNIFLMKNNIKEYDWGGINFIPNLLGDKIDGKPKAEMWLGAHKTFSSKILYKNEYVLLSDFLEDHKELLGCNDEFPFLLKVLSANKPLSIQIHPSKDIALKGYESENNKGIDINDPKRTYKDKNPKIELIYALSDFYALKGFLPLDEIKKIYEILELNFDFQSHKDFVKTIFDLQMYELEKIIEKILKNLDLIDNFRGYWFNEIYNIYGIDVGLLVFLGMNILKLKPGEVVYTNSQEVHAYLKGDCIELMTNSDNVIRAGLTTKYIDKDEMLRVGQFEEGKLSFLNPDFQDNFSVFRLPNTNLKLIQKKINENICINRNSAMVLLVLNGCVSINKSLNLKKGESIFIGKKAENLFIDGDGEAFIAGFN
modifications: labeled using RED-NHS dye (NT647)
With B1, the equilibrium dissociation constant (Kd) in experiment [2] is 128 ± 45.1 nM.
